In patent US11236059B2, “Targeted cytotoxic ratjadone derivatives and conjugates thereof” (HELMHOLTZ-ZENTRUM FUER INFEKTIONSFORSCHUNG GMBH, priority 2017, dated 2022):
Where two headings read alike, the source gives them in different places. Numbered stars: 1 amine (or outer) side, 2 acyl side, 3 side chain; on linkers, the order of the positions; unused ones are H or OH. Square brackets hold non-standard residues; d marks the D form. Peptide text beside a SMILES is read from it. * marks the point of attachment. Pteroyl = Nc1nc2ncc(CNc3ccc(C(=O)*)cc3)nc2c(=O)[nH]1; Orn(N3) = [N-]=[N+]=NCCC[C@H](N)C(=O)O; γGlu = O=C(O)[C@H](CCC(=O)[*:2])N[*:1]

Assays:
[1] = tested on: MCF-7 (DSMZ ACC 115) cells; assay: cells; format: cell-based
Procedure: (§1) 60 μL of serial dilutions of the test compound were given to 120 μL of suspended cells (50.000/mL) in wells of 96-well plates. After 5 days of incubation growth inhibition (IC50) was determined using an MTT assay.^[64]

[2] = tested on: SKOV-3 (DSMZ ATCC HTB 77) cells; assay: cells; format: cell-based
Procedure: as §1

[3] = tested on: A549 (DSMZ ACC 107) cells; assay: cells; format: cell-based
Procedure: as §1

[4] = tested on: KB 3.1 (DSMZ ACC 158) cells
[5] = growth inhibition, 5 days of incubation, MTT assay, read-out: IC50 [nM] A-549 (carrier molecules)
[6] = read-out: IC50 [nM] KB-3.1 (carrier molecules), growth inhibition, 5 days of incubation, MTT assay

Row | Structure (SMILES) | IC50 [1] [nM] | IC50 [2] [nM] | IC50 [3] [nM] | IC50 [4] [nM] | IC50 [3, 5] [nM] | IC50 [4, 6] [nM] | IC50 ([1]; growth inhibition, 5 days of incubation, MTT assay, read-out: IC50 [nM] MCF-7 (carrier molecules)) [nM] | IC50 ([2]; growth inhibition, 5 days of incubation, MTT assay, read-out: IC50 [nM] SK-OV-3 (carrier molecules)) [nM]
1 | CC(C)C[C@H](NC(=O)C(CCCN=[N+]=[N-])NC(=O)[C@H](Cc1ccc(O)cc1)NC(=O)[C@H](CO)NC(=O)[C@H](Cc1c[nH]c2ccccc12)NC(=O)[C@H](Cc1c[nH]cn1)NC(=O)[C@@H]1CCC(=O)N1)C(=O)N[C@@H](CCCNC(=N)N)C(=O)N1CCC[C@H]1C(=O)NCC(N)=O (stereo in doubt) [D-N3-Orn-LHRH, (S)-1-(((R)-2-((S)-2-((S)-2-((S)-2-((S)-3-(1H-imidazol-4-yl)-2-((S)-5-oxopyrrolidine-2-carboxamido)propanamido)-3-(1H-indol-3-yl)propanamido)-3-hydroxypropanamido)-3-(4-hydroxyphenyl)propanamido)-5-azidopentanoyl)-L-leucyl-L-arginyl)-N-(2-amino-2-oxoethyl)pyrrolidine-2-carboxamide] | 47.4 | 190 | 318 | 1110 |  |  |  | 
2 | [N-]=[N+]=NCCC[C@H](NC(=O)[C@@H](CC(=O)O)NC(=O)[C@@H](CC(=O)O)NC(=O)[C@@H](CC(=O)O)NC(=O)[C@@H](CC(=O)O)NC(=O)[C@@H](CC(=O)O)NC(=O)CC[C@H](NC(=O)c1ccc(NCc2cnc3nc(N)nc(O)c3n2)cc1)C(=O)O)C(=O)O [FA-N3-5, N^2-(4-(((2-amino-4-hydroxypteridin-6-yl)methyl)amino)benzoyl)-N5-((R)-1-(((R)-1-(((R)-1-(((R)-1-(((R)-1-(((S)-4-azido-1-carboxybutyl)amino)-3-carboxy-1-oxopropan-2-yl)amino)-3-carboxy-1-oxopropan-2-yl)amino)-3-carboxy-1-oxopropan-2-yl)amino)-3-carboxy-1-oxopropan-2-yl)amino)-3-carboxy-1-oxopropan-2-yl)-L-glutamine] ({Pteroyl-γGlu}-[dD][dD][dD][dD][dD][Orn(N3)]-OH) |  |  |  |  | > 86400 | > 86400 |  | 
3 | CC(C)C[C@H](NC(=O)[C@H](CCCN=[N+]=[N-])NC(=O)[C@H](Cc1ccc(O)cc1)NC(=O)[C@H](CO)NC(=O)[C@H](Cc1c[nH]c2ccccc12)NC(=O)[C@H](Cc1c[nH]cn1)NC(=O)[C@@H]1CCC(=O)N1)C(=O)N[C@@H](CCCNC(=N)N)C(=O)N1CCC[C@H]1C(=O)NCC(N)=O [L-N3-Orn-LHRH, (S)-1-(((S)-2-((S)-2-((S)-2-((S)-2-((S)-3-(1H-imidazol-4-yl)-2-((S)-5-oxopyrrolidine-2-carboxamido)propanamido)-3-(1H-indol-3-yl)propanamido)-3-hydroxypropanamido)-3-(4-hydroxyphenyl)propanamido)-5-azidopentanoyl)-L-leucyl-L-arginyl)-N-(2-amino-2-oxoethyl)pyro-lidine-2-carboxamide] |  |  |  |  | > 727000 | > 727000 | > 727000 | > 727000
4 | [N-]=[N+]=NCCC[C@H](NC(=O)CC[C@H](NC(=O)c1ccc(NCc2cnc3nc(N)nc(O)c3n2)cc1)C(=O)O)C(=O)N[C@H](CCCCN)C(=O)O [FA-N3-9, ((S)-2-((S)-4-(4-(((2-amino-4-hydroxypteridin-6-yl)methyl)amino)benzamido)-4-carboxybutanamido)-5-azidopentanoyl)-D-lysine] |  |  |  |  | > 140000 | > 140000 |  | 
5 | [N-]=[N+]=Nc1ccc(C(=O)NCCCC[C@H](NC(=O)CC[C@H](NC(=O)CC[C@H](NC(=O)c2ccc(NCc3cnc4nc(N)nc(O)c4n3)cc2)C(=O)O)C(=O)O)C(=O)O)cc1 [FA-N3-6, (3S,8S,13S)-1-(4-(((2-amino-4-hydroxypteridin-6-yl)methyl)amino)phenyl)-19-(4-azidophenyl)-1,6,11,19-tetraoxo-2,7,12,18-tetraazanonadecane-3,8,13-tricarboxylic acid] |  |  |  |  | > 118000 | > 118000 |  | 
